Data: patent publication US8222298B2, “Methods of correcting imbalance between bone resorption and bone formation and kits and compositions therefor” (CHU Sainte-Justine, priority 2007, dated 2012)

Assays:
RAW264.7 cells [1] = test: Osteoclast differentiation measured by TRAP staining of RANKL-treated RAW264.7 cells; assay type: cell-based, mouse; conditions: 2.5 or 6 days
Protocol: Cellular model RAW264.7 (mouse macrophage cell line, ATCC # TIB-71). These cells differentiate in osteoclast-like cells upon addition of receptor activator of nuclear factor-kappaB ligand (RANKL). Cell differentiation usually occurs within two days. Cells were studied at 2.5 (early stage), 6 and 10 days (late stage) following RANKL addition. Experimental treatments: In some experiments, 4-P-PDOT was added to the cells at the same time as RANKL at a concentration of 10^−6M. Cells cultured with RANKL only served as controls. In order to assess osteoclastogenesis, RAW264.7 cells were cultured with RANKL for 2.5 or 6 days with and without 10^−6M of 4-P-PDOT. RAW264.7 cells were fixed with paraformaldehyde and stained for TRAP activity (marker of active osteoclasts) at 2.5 and 6 days of differentiation. Positive-stained cells with more than 3 nuclei were counted in eight different microscopic fields done in quadruplicate. Results are presented in FIGS. 3A and B for the 2.5 or 6 days experiments, respectively. […] The effect of melatonin on osteoclastogenesis and osteoclast function was assessed with the same methods as those described in Examples 2 and 3 above except that cells were grown in the presence of 10^−9M of melatonin in addition to RANKL. In some experiments, melatonin was added along with 10^−6M of 4-P-PDOT. Cells treated with RANKL alone served as controls.

[2] = tested on: adenylyl cyclase activity of forskolin-stimulated RAW 264.7 cells; test: cAMP production in forskolin-stimulated RAW264.7 cells (enzyme immunoassay); assay type: cell-based, mouse; conditions: increasing doses, 10^-4M forskolin, 30 minutes at 37° C., no RANKL
Protocol: RAW264.7 cells were grown in culture medium without RANKL until confluence (7 days). Cells were then incubated with 10^−4M of forskolin in presence of various concentrations of melatonin (FIG. 9, panel A), 4-P-PDOT (FIG. 9, panel B) or both (FIG. 9, panel C). Concentrations ranged from 10^−11 to 10^−5M for melatonin and from […] to 10^−4M for 4-P-PDOT. In the double treatment group, cells were treated with increasing concentrations of melatonin (10^−11 to 10^−5M) to which 10^−6M of 4-P-PDOT was added. After 30 minutes incubation at 37° C., cells were lysed in TRIS-EDTA buffer supplemented with protease and phosphodiesterase inhibitors at 4° C. The cAMP content was determined in duplicate in 200 μL aliquot of the supernatant using an enzyme immunoassay kit. […]

RAW264.7 cells [3] = test: Cell apoptosis by DeadEnd fluorometric TUNEL system; assay type: cell-based, mouse; conditions: 10^-6M 4-P-PDOT with RANKL, 6 days
Protocol: RAW264.7 cells were grown in culture medium with RANKL for 6 days with or without 10^−6M of 4-P-PDOT. Cells were fixed in 3.7% of paraformaldehyde and permeabilized with 0.2% Triton™-X-100. A subset of cells were treated with DNase for 10 minutes at room temperature and served as positive controls. Cell apoptosis was determined using the DeadEnd™ fluorometric TUNEL system. This method measures fragmented DNA through the incorporation of fluorescent-labeled d-UTP. Permeabilized cells were incubated in equilibration buffer with a nucleotide mix and the enzyme that catalyzes the reaction for 1 hour at 37° C. Negative controls were incubated without the enzyme. After several rinses in SSC and PBS, cells were mounted and visualized by fluorescence microscopy.

RAW264.7 cells [4] = test: Cell proliferation by tritiated thymidine incorporation; assay type: cell-based, mouse; conditions: 10^-6M 4-P-PDOT with RANKL, 2.5 days
Protocol: After 24 hour attachment, RAW264.7 cells were serum-starved overnight and then grown for 2.5 days in culture medium containing RANKL and melatonin (10^−7 or 10^−6M), or melatonin (10^−6M) and a melatonin receptor non-specific antagonist, luzindole (10^−8M), or melatonin (10^−6M) and 4-P-PDOT (10^−6M), or luzindole (10^−6M), or 4-P-PDOT (10^−6M) alone. Thymidine incorporation was assayed by the addition of 0.02 μCi/μL of tritiated thymidine to the medium 8 hours before cell harvest. Cells were then washed twice with ice-cold PBS and three times with cold 5% trichloroacetic acid. Cells were lysed in a mixture of 0.5N NaOH and 0.5% SDS and radioactivity of the lysates determined using a beta-counter.

RANK = RANK expression by RT-PCR in RAW264.7 cell-derived osteoclasts; assay type: cell-based, mouse; conditions: RT-PCR after 6 days of treatment; 10^-9M melatonin, 10^-6M 4-P-PDOT
Protocol: The effect of melatonin and of 4-P-PDOT on the expression of various genes involved in osteoclast differentiation and activity was evaluated by RT-PCR after 6 days of treatment.

male C57Bl/6j mice = test: Low-BMD mouse model: weight gain and bone densitometry over 35 days; assay type: in vivo; conditions: 10 mg/kg intraperitoneally three times a week, first 35 days
Protocol: In parallel, control animals received injections of a solution made of water and ethanol (20%). During this period, animals were subjected to weekly bone densitometric measurements (BMD and bone mineral content (BMC)) with a PixiMus™ II bone densitometer, and blood and urine collection. Scan of individual spine, long bones (femurs), were performed. Scans of tibiae, radius and mandible were also performed. To monitor bone formation rate, 25 mg/kg of tetracycline hydrochloride was injected on days 10 and 20 following the beginning of the injections. Bone histomorphometry for bone formation and resorption static and dynamic parameters were also measured. The biochemical markers used are alkaline phosphatase for bone formation, and urinary deoxypyridinoline for bone resorption.

male C57BL/6 mice = test: Femur section histology (TRAP and Goldner staining) in treated mice; assay type: in vivo, mouse; conditions: 10 mg/kg intraperitoneally three times a week, 4 weeks
Protocol: The effect of 4-P-PDOT on the formation of bones has also been tested using 4-week old male C57BL/6 mice following weaning. Mice were injected intraperitoneally with 10 mg/kg of 4-P-PDOT three times a week for 4 weeks (28 days). After this period, femur sections were stained to quantify tartrate-resistant acidic phosphatase- (TRAP-) positive osteoclasts (i.e. “active” osteoclasts). […] A Goldner staining was also performed on the femur sections in order to quantify the total number of osteoclasts.

RAW 264.7 cells = test: Bone resorption assay on resorbable bone analog (BioCoat Osteologic discs); assay type: cell-based, mouse; conditions: 10^-9M melatonin with RANKL, 10 days culture
Protocol: Osteoclast activity was determined using a resorbable bone analog (BioCoat™ Osteologic™ discs, BD Biosciences). RAW 264.7 cells were plated on 16-well plates coated with this analog. 24 hours post-plating, cells were treated with RANKL alone or with RANKL+10^−6M of 4-P-PDOT for a period of 10 days. In another set of experiments, 10^−6M of 4-P-PDOT was added after 6 days of culture with RANKL and cells were cultured for an additional 4 days in order to examine the effects of 4-P-PDOT on more mature cells. At the end of the culture period, cells were detached with bleach and bone analog stained with 5% silver nitrate according to manufacturer's instructions to reveal the presence of resorbed bone area (resorption pits). The number of pits and the area of resorbed bone were quantified in 8 microscopic fields in duplicate using Bioquant™ software. The effect of melatonin on osteoclastogenesis and osteoclast function was assessed with the same methods as those described in Examples 2 and 3 above except that cells were grown in the presence of 10^−9M of melatonin in addition to RANKL. In some experiments, melatonin was added along with 10^−6M of 4-P-PDOT. Cells treated with RANKL alone served as controls.

Structure (SMILES)	number of TRAP+ cells (osteoclast differentiation) (RAW264.7 cells [1]; 10^-6M 4-P-PDOT with RANKL)	cAMP production [2]	apoptosis, treated vs. untreated cells (RAW264.7 cells [3])	cell proliferation, treated vs. untreated cells (RAW264.7 cells [4])	RANK's expression (RANK)	bone mineral accretion at the spine and whole body level vs vehicle-injected animals (male C57Bl/6j mice)	weight gain vs vehicle-injected animals (male C57Bl/6j mice)	number of active (TRAP-positive) osteoclasts in femur sections vs control mice (male C57BL/6 mice)	number of total osteoclasts (Goldner staining) in femur sections (male C57BL/6 mice)	reduction in the relative number of active osteoclasts vs vehicle-treated mice (male C57BL/6 mice)	relative number of total osteoclasts vs vehicle-treated mice (male C57BL/6 mice)	trabecular bone (Goldner staining) in femur sections (male C57BL/6 mice)	effect on osteoclastogenesis (TRAP-positive cells) (RAW264.7 cells [1]; 10^-9M melatonin with RANKL)	bone resorption (resorption pits, resorbed area) (RAW 264.7 cells)
CCC(=O)NC1Cc2ccccc2C(c2ccccc2)C1 (stereo not shown) [4-P-PDOT, 4-phenyl-2-propionamidotetralin]	reduces the number of TRAP+ cells	cAMP production increases	comparable	comparable	significant decrease	increase	increase	significant reduction	increased	about 3 fold	increased	increased	–	–
COc1ccc2[nH]cc(CCNC(C)=O)c2c1 [melatonin]	–	inhibited	–	–	significant decrease	–	–	–	–	–	–	–	did not have a significant effect	significantly reduced bone resorption
